The text below walks through data of PubChem BioAssay AID1918946 (Molecular Pharmacology Branch, DTP, NCI, 2023).

As a reminder, the viability, T/C is the result in the treated group divided by that in the control group, in per cent. Usually pIC50 stands for the IC50 on a negative log10 scale, so that one unit is a factor of ten.

pIC50: −log10 of the molar value. “And” between values parts separate entries of the source, which are not always exact repeats. Identical values can stand only once. A value given as a limit tells only on which side of the number the result lay.

The assay concerns 885512-296-R-J2-PDC complex spheroid viability. The assay is described as follows: Anticancer human tumor 885512-296-R-J2-PDC patient-derived breast carcinoma cell line growth inhibition. Conditions: for viability, T/C: stronger effect = lower value; for pIC50: curve of compound. An excerpt:
Multicellular complex tumor spheroid response to LSD1 Inhibitor Iadademstat in combination with a variety of drugs and investigational agents in selected tumor cell lines
The current study was undertaken to assess response to LSD1 inhibitors in combination with standard-of-care drugs and investigational agents in solid tumor complex spheroid models as well as in the K-562 leukemia. Complex spheroids include a stromal component modeled by human endothelial cells (HUVEC) and fibroblasts modeled by human mesenchymal stem cells (MSCs). The concentration ranges selected for each drug and investigational agent were based upon clinically achievable concentrations if the clinical Cmax of the agent was known.
Compounds. The drugs and investigational agents used in this study are listed on Table 1. All of the agents used, including staurosporine (NSC755774) and gemcitabine (NSC613327), were obtained from the Developmental Therapeutics Program, NCI. FDA-approved anticancer drugs are available from the NCI at http://dtp.nci.nih.gov/branches/dscb/oncology_drugset_explanation.html. Drugs and investigational agents were >95% pure by proton nuclear magnetic resonance (NMR) and liquid chromatography/mass spectrometry (LC/MS). Stock solutions were prepared at 400x in DMSO, stored at -70 degrees C, and diluted in fresh medium prior to their use. The final concentration of DMSO in cell culture wells never exceeded 0.25% (v/v). The FDA-approved anticancer drug set is available from the Developmental Therapeutics Program at https://dtp.cancer.gov/organization/dscb/obtaining/available_plates.htm. All drugs and investigational agents were tested over a range starting from a high concentration at or near the clinical Cmax and decreasing in half-log increments. If the clinical Cmax for an agent had not been determined, the highest concentration tested was 10 microM.
Cell Lines. The patient-derived cancer cell (PDC) lines: 292921-168-R-J2-PDC, K24384-001-R-PDC, and 521955-158-R2-J5-PDC pancreatic carcinomas, 556581-035-R-J1 ovarian carcinoma, 324938-238-R-J1-PDC, 855422-203-R-J1-PDC and 883617-216-R-J1-PDC urothelial bladder carcinomas, 743489-274-T-PDC renal cell carcinoma, 138582-R-J1 Merkel cell tumor, K60290-347-R-J1 and K57222-313-R-J1-PDC glioblastomas, 653999-131-R-J2-PDC, LG0703-F948-PDC, and 349418-098-R-PDC non-small cell lung carcinomas, 885512-296-R-J2-PDC, 171881-019-R-J1-PDC breast carcinomas and 186277-243-T-J2-PDC and 233499-124-R-J2-PDC colon carcinomas were obtained from the NCI Patient-Derived Models Repository (PDMR, https://pdmr.cancer.gov). The established cell lines NCI/ADR-RES (RRID:CVCL_14520 and OVCAR-5 (RRID:CVCL_1628) ovarian carcinomas, 786-O (RRID:CVCL_1051) and A498 (RRID:CVCL_A498) renal cell carcinoma, NCI-H211 (ATCC, cat. CRL-5824; RRID:CVCL_1529), NCI-H196 (ATCC, cat. CRL-5823, RRID:CVCL_1509), SW 1271 (ATCC, cat. CRL-2177, RRID:CVCL_1716) and NCI-H1876 (ATCC, cat. CRL-5902, RRID:CVCL_1503) small cell lung carcinomas, MDA-MB-231 (RRID:CVCL_0062) and MDA-MB-468 (RRID:CVCL_0419)breast carcinomas (10-12). Pooled donor human umbilical vein endothelial cells (HUVEC, Lonza, cat. CC-2519) and human mesenchymal stem cells (hMSC, Lonza, cat. PT-2501) were purchased from Lonza (Walkersville, MD).
Cell Culture. All cells were maintained in an incubator at 37 degrees C and 5% CO2 with 95% humidity. The PDC lines were cultured according to standard operating procedures established by the NCI PDMR (https://pdmr.cancer.gov). Briefly all PDCs were thawed and cultured in Matrigel-coated flasks prepared with a working solution of 1X Ham's F-12 nutrient mix, without supplementation (Invitrogen, Waltham, MA, cat. 11765054), 100 U/mL penicillin-streptomycin (Invitrogen, cat. 15140122), and 2.5% Matrigel (Corning Inc., Corning, NY, cat. 354248) for the first three passages. […]
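Further: spheroids exposed to agents for 7 days before viability read.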

For `Cn1ncnc1C1c2n[nH]c(=O)c3cc(F)cc(c23)NC1c1ccc(F)cc1` (stereo not drawn), the negative-log IC50 (pIC50) is 7.80 and 7.42. The viability, T/C (compound 0.000316 µM) is 113% and 78.9%. Also, the viability, T/C (compound 0.001 µM) is 96.4% and 90.1%. Also, the viability, T/C (compound 0.00316 µM) was 81.5% and 89.5%. Further, where the note is “compound 0.01 µM”, the viability, T/C is 58.5% and 70.7%. Besides, the viability, T/C (compound 0.0316 µM) is 36.5% and 55.6%. Besides, the viability, T/C (compound 0.1 µM) is 15.5% and 29.8%.
On to `NS(=O)(=O)OCC1CC(n2ccc3c(NC4CCc5ccccc54)ncnc32)CC1O` (stereo not drawn), for which the pIC50 was over 8.02. Moreover, the viability, T/C (compound 0.00949 µM) was 19.9% and 20.9%. For the setting “compound 0.03 µM”, the viability, T/C was 8.83% and 6.03%. In addition, the viability, T/C (compound 0.0949 µM) is 7.38% and 2.26%. In addition, the viability, T/C (compound 0.3 µM) is 4.17% and 1.57%. Further, where the note is “compound 0.949 µM”, the viability, T/C is 8.44% and 0.8%. Moreover, the viability, T/C (compound 3 µM) was 6.16% and 0.67%.
Take `Nc1ccccc1NC(=O)c1ccc(CNC(=O)OCc2cccnc2)cc1`: the pIC50 was 7.21 and 7.60. Besides, the viability, T/C (compound 0.00949 µM) was 92.7% and 64.7%. The viability, T/C (compound 0.03 µM) is 63.2% and 46.1%. Further, the viability, T/C (compound 0.0949 µM) is 44.3% and 33.1%. For the same molecule, the viability, T/C (compound 0.3 µM) was 22.8% and 16.8%. The viability, T/C (compound 0.949 µM) is 12.9% and 6.76%. The viability, T/C (compound 3 µM) is 10.3% and 0.3%.
Regarding `Nc1ccn(C2OC(CO)C(O)C2(F)F)c(=O)n1` (stereo not drawn), the negative-log IC50 (pIC50) was over 9.02. Besides, the viability, T/C (compound 0.000949 µM) is 5.28% and 20.8%. Also, the viability, T/C (compound 0.003 µM) is 8.05% and 3%. Besides, the viability, T/C (compound 0.00949 µM) was 5.82% and 2.16%. The viability, T/C (compound 0.03 µM) was 8.91% and 2.45%. Moreover, the viability, T/C (compound 0.0949 µM) was 10.2% and 2.79%. Under “compound 0.3 µM”, the viability, T/C is 8.07% and 3.31%.
Regarding `Nc1ncn(C2CC(O)C(CO)O2)c(=O)n1` (stereo not drawn), the negative-log IC50 (pIC50) was 7.73 and 7.19. Moreover, for the setting “compound 0.00316 µM”, the viability, T/C is 74.3% and 93.4%. Also, the viability, T/C (compound 0.01 µM) was 60.7% and 84.3%. Further, the viability, T/C (compound 0.0316 µM) is 40.7% and 68.5%. Also, under “compound 0.1 µM”, the viability, T/C is 28.2% and 37.6%. Besides, the viability, T/C (compound 0.316 µM) is 23.4% and 23.6%. In addition, where the note is “compound 1 µM”, the viability, T/C is 11.6% and 15.8%.
Regarding `Nc1ncn(C2CC(O)C(CO)S2)c(=O)n1` (stereo not drawn), the pIC50 is 8.39 and 8.31. Further, the viability, T/C (compound 0.000949 µM) was 81.4% and 90.5%. Besides, the viability, T/C (compound 0.003 µM) is 52.7% and 62.2%. Further, the viability, T/C (compound 0.00949 µM) is 39.5% and 33.1%. For the setting “compound 0.03 µM”, the viability, T/C is 17.3% and 19.7%. Also, the viability, T/C (compound 0.0949 µM) is 10.9% and 9.65%. In addition, the viability, T/C (compound 0.3 µM) was 12% and 4.63%.
`O=C(C=Cc1cccc(S(=O)(=O)Nc2ccccc2)c1)NO`: the pIC50 was 7.34 and 7.59. Moreover, under “compound 0.00949 µM”, the viability, T/C was 70% and 91.1%. In addition, the viability, T/C (compound 0.03 µM) is 60.1% and 44%. The viability, T/C (compound 0.0949 µM) is 32.8% and 28.1%. For the same molecule, for the setting “compound 0.3 µM”, the viability, T/C was 20.3% and 16.4%. Besides, where the note is “compound 0.949 µM”, the viability, T/C was 13.7% and 2.92%. Moreover, for the setting “compound 3 µM”, the viability, T/C was 13.9% and 72.2%.
Take `O=C(C=Cn1cnc(-c2cc(C(F)(F)F)cc(C(F)(F)F)c2)n1)NNc1cnccn1`: the negative-log IC50 (pIC50) was over 8.50. For the same molecule, the viability, T/C (compound 0.00316 µM) is 31.1% and 23.7%. For the same molecule, under “compound 0.01 µM”, the viability, T/C is 5.75% and 8.41%. The viability, T/C (compound 0.0316 µM) is 3.88% and 2.23%. The viability, T/C (compound 0.1 µM) is 6.09% and 0.68%. Where the note is “compound 0.316 µM”, the viability, T/C was 7.95% and 0.57%. Also, the viability, T/C (compound 1 µM) is 6.27% and 0.53%.
In the case of `O=C(c1cc(Cc2n[nH]c(=O)c3ccccc23)ccc1F)N1CCN(C(=O)C2CC2)CC1`, the pIC50 is 6.40 and 6.09. Moreover, for the setting “compound 0.0316 µM”, the viability, T/C was 81.2% and 95.5%. The viability, T/C (compound 0.1 µM) was 92.8% and 89.7%. Besides, the viability, T/C (compound 0.316 µM) was 57.2% and 74.8%. Further, the viability, T/C (compound 1 µM) is 17.2% and 46.9%. Moreover, for the setting “compound 3.16 µM”, the viability, T/C was 10.2% and 11.8%. The viability, T/C (compound 10 µM) was 7.83% and 6.41%.
